Experiment [1] deals with H3K9me2 in HCT116 cells. Briefly: HCT116 H3K9me2 in-cell western assay. Format: cell-based. The settings on record: Homo sapiens, HCT-116, 72 h, HCT116 cells, 72 hours incubation; read-out: H3K9me2 ICW IC50. The method, boiled down: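 HCT116 cells (2,000/well) were treated for 72 h at 37° C, 5% CO2, with ten two-fold dilutions from 10 μM in duplicate. After PFA fixation, cells were stained overnight at 4° C with anti-H3K9me2, then with an 800 CW secondary plus DRAQ5.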

Experiment [2] has as its target T1, human EHMT1 982-1266 (Homo sapiens, UniProt Q9H9B1).
T1 sequence (Q9H9B1 982-1266): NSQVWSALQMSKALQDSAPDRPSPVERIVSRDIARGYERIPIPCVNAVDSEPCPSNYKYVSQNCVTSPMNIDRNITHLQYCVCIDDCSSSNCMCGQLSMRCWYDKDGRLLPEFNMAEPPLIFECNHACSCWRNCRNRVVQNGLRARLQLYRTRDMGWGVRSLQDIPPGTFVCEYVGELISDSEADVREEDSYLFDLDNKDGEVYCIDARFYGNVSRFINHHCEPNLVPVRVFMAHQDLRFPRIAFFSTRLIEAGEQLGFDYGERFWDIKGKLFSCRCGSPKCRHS
Briefly: EHMT1 enzyme assay on histone peptide substrate (3H-SAM SPA). Particulars: EHMT1 IC50, recombinant human EHMT1 982-1266, histone peptide substrate.

Experiment [3] concerns the target T2, human EHMT2 913-1193 (Homo sapiens, UniProt Q96KQ7).
T2 sequence (Q96KQ7 913-1193): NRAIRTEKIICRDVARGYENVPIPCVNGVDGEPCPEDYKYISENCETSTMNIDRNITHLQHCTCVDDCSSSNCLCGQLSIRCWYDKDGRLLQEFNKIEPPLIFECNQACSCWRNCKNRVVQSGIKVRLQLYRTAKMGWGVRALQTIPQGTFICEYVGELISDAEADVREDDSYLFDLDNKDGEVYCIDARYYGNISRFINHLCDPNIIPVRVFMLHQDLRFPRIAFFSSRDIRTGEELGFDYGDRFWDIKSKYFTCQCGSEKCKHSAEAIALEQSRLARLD
Kind of experiment: EHMT2 enzyme assay on histone peptide substrate (3H-SAM SPA). The settings on record: EHMT2 IC50, recombinant human EHMT2 913-1193, histone peptide substrate.

The values that follow come from patent US20240368139A1, “NOVEL MODULATORS OF EHMT1 AND EHMT2 AND THERAPEUTIC USE THEREOF” (Tango Therapeutics, Inc., priority 2021, published 2024).

For orientation: IC50 means the concentration that inhibits the measured activity by half.

Structures are written as SMILES.

As to `CNc1nc(Nc2cc3c(c(C4=CCN(C)CCC4)c2F)OCO3)nc(C)c1F` [Compound 205], the 50% inhibitory concentration (IC50) in experiment [1] is 100 to 500 nM; in experiment [2] it was 100 to 500 nM; in experiment [3], 500 to 2000 nM.
Regarding `Cc1cc(NCC(F)(F)F)cc(Nc2cc3c(c(C4=CCNCCC4)c2)OCC3)n1` [Compound 309], the figures for the IC50 in experiment [1], in experiment [2] and in experiment [3] were 500 to 2000 nM, 100 to 500 nM and 500 to 2000 nM, respectively.
Turning to `[2H]C([2H])([2H])Nc1nc(Nc2cc3c(c(C4=CCNCCC4)c2)OCC3)nc(C)c1F` [Compound 276], the IC50 in experiment [1], in experiment [2] and in experiment [3] was 100 to 500 nM in each case.
`CNc1cc(C)nc(Nc2cc3c(c(C4=CCNCC(O)C4)c2Cl)OCC3)n1` (single isomer, unassigned) [Compound 376]: the IC50 was under 100 nM in experiment [1], under 100 nM in experiment [2] and 100 to 500 nM in experiment [3].
In the case of `[2H]C([2H])([2H])Nc1nc(Nc2cc3c(c(C4=CCNCCC4)c2F)OCC3)nc(C)c1F` [Compound 256], the IC50 in experiment [1], in experiment [2] and in experiment [3] was under 100 nM in each case.
For `CNc1cc(C)nc(Nc2cc(OCCCN3CCCC3)c3c(c2)OCO3)c1` [Compound 147, N4,6-dimethyl-N2-[7-(3-pyrrolidin-1-ylpropoxy)-1,3-benzodioxol-5-yl]pyridine-2,4-diamine], the figures for the IC50 in experiment [1], in experiment [2] and in experiment [3] were 500 to 2000 nM, 500 to 2000 nM and over 2000 nM, respectively.
For the compound `Cc1cc(NCC2CCCO2)nc(Nc2cc3c(c(C4=CCNCCC4)c2)OCC3)n1` (stereo not drawn) [Compound 294], the IC50 was 100 to 500 nM in experiment [1], under 100 nM in experiment [2] and 100 to 500 nM in experiment [3].
For `CNc1cc(C)nc(Nc2cc3c(c(C4=CCNCCC4)c2)COC3)n1` [Compound 311], the 50% inhibitory concentration (IC50) in experiment [1] is 100 to 500 nM; in experiment [2], 100 to 500 nM; in experiment [3] it was 500 to 2000 nM.
As for `CNc1cc(C)nc(Nc2cc(OCCCN3CCCC3)c3c(c2)OC(F)(F)O3)n1` [Compound 154, N2-[2,2-difluoro-7-(3-pyrrolidin-1-ylpropoxy)-1,3-benzodioxol-5-yl]-N4,6-dimethyl-pyrimidine-2,4-diamine], the IC50 in experiment [1] is 100 to 500 nM; in experiment [2] it was under 100 nM; in experiment [3], 500 to 2000 nM.
Consider `CNc1cc(C)nc(Nc2cc3c(c(N4CCCN(C)CC4)c2)OCC3)n1` [Compound 126, N4,6-dimethyl-N2-[7-(4-methyl-1,4-diazepan-1-yl)-2,3-dihydrobenzofuran-5-yl]pyrimidine-2,4-diamine], for which the IC50 in experiment [1], in experiment [2] and in experiment [3] was 500 to 2000 nM in each case.
As to `[2H]C([2H])([2H])Nc1cc(C)nc(Nc2cc3c(c(C4=CCN(C)CCC4)c2)OCCO3)n1` [Compound 282], the IC50 in experiment [1] is 100 to 500 nM; in experiment [2], under 100 nM; in experiment [3] it was 500 to 2000 nM.
On the same counts, the results for `[2H]Cc1cc(NC)nc(Nc2cc3c(c(C4=CCNCCC4)c2)OCC3)n1` [Compound 302] are under 100 nM, under 100 nM and under 100 nM.
For `CNc1nc(Nc2cc3c(c(C4=CCN(C)CCC4)c2F)OCC3)nc(C)c1Cl` [Compound 215], in that order: 100 to 500 nM, 100 to 500 nM and 500 to 2000 nM.
`[2H]Cc1cc(NC)nc(Nc2cc3c(c(C4=CCNCCC4)c2)OCCO3)n1` [Compound 270]: the IC50 in experiment [1], in experiment [2] and in experiment [3] was under 100 nM each time.
Take `[2H]C([2H])([2H])Nc1cc(C)nc(Nc2cc3c(c(C4=CCN(C)CCC4)c2)OCC3)n1` [Compound 301]: the IC50 was 100 to 500 nM in experiment [1], under 100 nM in experiment [2] and under 100 nM in experiment [3].
Take `CNc1nc(Nc2cc3c(c(C4=CCN(C)CCC4)c2F)OCC3)nc(C)c1F` [Compound 245]: the IC50 in experiment [1] was 100 to 500 nM; in experiment [2], 100 to 500 nM; in experiment [3], 500 to 2000 nM.
For `[2H]Cc1cc(NC)nc(Nc2cc3c(c(C4=CCNCCC4)c2)OCCC3)n1` [Compound 248], the IC50 in experiment [1], in experiment [2] and in experiment [3] was under 100 nM each time.
For the compound `[2H]C([2H])([2H])Nc1cc(C)nc(Nc2cc3c(c(C4=CCNCCC4)c2)OCC3)n1` [Compound 306], the concentration for half-maximal inhibition (IC50) in experiment [1], in experiment [2] and in experiment [3] was under 100 nM in each case.
As to `[2H]Cc1nc(Nc2cc3c(c(C4=CCNCCC4)c2F)OCC3)nc(NC([2H])([2H])[2H])c1F` [Compound 225], the IC50 in experiment [1], in experiment [2] and in experiment [3] was under 100 nM throughout.
For the compound `[2H]C([2H])([2H])CNc1cc(C)nc(Nc2cc3c(c(C4=CCNCCC4)c2)OCCO3)n1` [Compound 285], the IC50 in experiment [1], in experiment [2] and in experiment [3] was 100 to 500 nM each time.
As to `CNc1nc(Nc2cc3c(c(OCCCN4CCCC4)c2)OCC3)nc(C)c1F` [Compound 108, 5-fluoro-N4,6-dimethyl-N2-[7-(3-pyrrolidin-1-ylpropoxy)-2,3-dihydrobenzofuran-5-yl]pyrimidine-2,4-diamine], the half-inhibitory concentration (IC50) in experiment [1], in experiment [2] and in experiment [3] was over 2000 nM in each case.
On to `CNc1cc(C)nc(Nc2cc3c(c(C4=CC(C)N(C)CCC4)c2F)OCC3)n1` (stereo not drawn) [Compound 200], for which the results for the half-maximal inhibitory concentration (IC50) in experiment [1], in experiment [2] and in experiment [3] were 100 to 500 nM, 100 to 500 nM and 500 to 2000 nM, respectively.
As to `[2H]C([2H])([2H])N1CC=C(c2c(F)c(Nc3nc(C)cc(NC)n3)cc3c2OCC3)CCC1` [Compound 227], the IC50 in experiment [1], in experiment [2] and in experiment [3] was under 100 nM each time.
With `CCc1cc(NC)nc(Nc2cc3c(c(C4=CCN(C)CCC4)c2)OCC3)n1` [Compound 316], the figures for the 50% inhibitory concentration (IC50) in experiment [1], in experiment [2] and in experiment [3] were 100 to 500 nM, under 100 nM and 100 to 500 nM, respectively.
Turning to `CNc1cc(C)nc(Nc2cc(OCCCN3CCCC3)c3oc(=O)[nH]c3c2)n1` [Compound 124, 5-[[4-methyl-6-(methylamino)pyrimidin-2-yl]amino]-7-(3-pyrrolidin-1-ylpropoxy)-3H-1,3-benzoxazol-2-one], the results for the half-maximal inhibitory concentration (IC50) in experiment [1], in experiment [2] and in experiment [3] were over 2000 nM, 100 to 500 nM and over 2000 nM, respectively.
Turning to `Cc1cc(NCC2CCOCC2)nc(Nc2cc3c(c(C4=CCNCCC4)c2)OCC3)n1` [Compound 308], the values for the half-maximal inhibitory concentration (IC50) in experiment [1], in experiment [2] and in experiment [3] were 100 to 500 nM, under 100 nM and under 100 nM, respectively.
Regarding `CNc1cc(C)nc(Nc2cc3c(c(C4=CCNCCC4)c2OC)OCC3)n1` [Compound 192], the IC50 fell in the range of 100 to 500 nM in experiment [1], 100 to 500 nM in experiment [2] and 500 to 2000 nM in experiment [3].
For the compound `CNc1nc(Nc2cc3c(c(C4=CCNCCC4)c2F)OCC3)nc(C)c1F` [Compound 242], the IC50 in experiment [1], in experiment [2] and in experiment [3] was under 100 nM throughout.
For `CCNc1cc(C)nc(Nc2cc3c(c(C4=CCNCCC4)c2)OCC3)n1` [Compound 315], the IC50 in experiment [1], in experiment [2] and in experiment [3] was 100 to 500 nM throughout.
Regarding `CNc1nc(Nc2cc3c(c(C4=CCNCCC4)c2F)OCO3)nc(C)c1F` [Compound 209], the IC50 in experiment [1] is under 100 nM; in experiment [2], 100 to 500 nM; in experiment [3], 100 to 500 nM.
In the case of `[2H]C([2H])([2H])Nc1nc(Nc2cc3c(c(C4=CCNCCC4)c2)OCO3)nc(C)c1F` [Compound 275], the half-inhibitory concentration (IC50) was 100 to 500 nM in experiment [1], 100 to 500 nM in experiment [2] and 500 to 2000 nM in experiment [3].
Regarding `CNc1cc(Nc2cc3c(c(C4=CCNCCC4)c2F)OCC3)nc(C)c1F` [Compound 257], the concentration for half-maximal inhibition (IC50) in experiment [1], in experiment [2] and in experiment [3] was under 100 nM throughout.
Consider `Cc1cc(NC2CCC2)nc(Nc2cc3c(c(OCCCN4CCCC4)c2)OCC3)n1` [Compound 119, N4-cyclobutyl-6-methyl-N2-[7-(3-pyrrolidin-1-ylpropoxy)-2,3-dihydrobenzofuran-5-yl]pyrimidine-2,4-diamine], for which the half-maximal inhibitory concentration (IC50) is 500 to 2000 nM in experiment [1], 500 to 2000 nM in experiment [2] and over 2000 nM in experiment [3].
As for `CNc1cc(C)nc(Nc2cc3c(c(C4CCNCC4)c2)OCC3)n1` [Compound 149, N4,6-dimethyl-N2-[7-(4-piperidyl)-2,3-dihydrobenzofuran-5-yl]pyrimidine-2,4-diamine], the half-inhibitory concentration (IC50) in experiment [1], in experiment [2] and in experiment [3] was over 2000 nM throughout.
For the compound `CNc1cc(C)nc(Nc2cc3c(c(C4=CCNCC(O)C4)c2F)OCO3)n1` (single isomer, unassigned) [Compound 428], the IC50 in experiment [1], in experiment [2] and in experiment [3] was under 100 nM in each case.
